These results are taken from ChEMBL document CHEMBL1141731, “Bioactive pyridoacridine alkaloids from the micronesian sponge Oceanapia sp” (J Nat Prod, 1998).

The test system of one series is HeLa. The series can be described thus: Cytotoxicity against human HeLa cells assessed as incorporation of [3H]thymidine incorporation. In kind it is functional, cell-based.
A further series relates to MONO-MAC-6. The series can be described thus: Cytotoxicity against human MONO-MAC-6 cells assessed as incorporation of [3H]thymidine incorporation. In kind it is functional, cell-based. In general terms: Incorporation of labelled thymidine or its analogues reports DNA synthesis.
The species named for series [1] is Rattus norvegicus. The series can be described thus: Displacement of [3H]diazepam from benzodiazepine binding site of GABAA receptor in rat brain cortical membrane at 25 uM. In kind it is cell membranes. (In a radioligand displacement assay an active substance lowers the binding of a labelled ligand.)
The test system of the next series is Artemia salina. The series can be described thus: Toxicity against Artemia salina at upto 100 ug/mL after 24 hrs. It is filed as organism-based. Particulars: in vivo.
For a further series, the system named is Cladosporium cucumerinum. The series can be described thus: Fungicidal activity against Cladosporium cucumerinum. In kind it is functional, organism-based.
For another series, the system named is Spodoptera littoralis. The series can be described thus: Insecticidal activity against Spodoptera littoralis larvae with artificial diet assessed survival after 6 days. In kind it is functional. To be noted: 144 h.
Series [2] has as its target Adenosine receptor A2a (Rattus norvegicus) (UniProt P30543). Put plainly: Displacement of [3H]CGS21680 from adenosine A2A receptor in rat brain striatal membrane at 100 uM. It is filed as cell membranes.
The test system of the next series is Bacillus subtilis. Put plainly: Antimicrobial activities activity against Bacillus subtilis 168 at 100ug/disk after 24 hrs by agar plate diffusion assay. It is filed as functional, organism-based. To be noted: subsp. subtilis str. 168.
The species named for series [3] is Rattus norvegicus. The series can be described thus: (§1) Displacement of [3H]diazepam from benzodiazepine binding site of GABAA receptor in rat brain cortical membrane. In kind it is cell membranes.
Another series deals with Escherichia coli. Put plainly: Antimicrobial activities activity against Escherichia coli ATCC 25922 at 100ug/disk after 24 hrs by agar plate diffusion assay. It is filed as functional, organism-based.
In series [4] the target is T1, Adenosine receptor A1 (Rattus norvegicus) (UniProt P25099).
T1 sequence (whole entry): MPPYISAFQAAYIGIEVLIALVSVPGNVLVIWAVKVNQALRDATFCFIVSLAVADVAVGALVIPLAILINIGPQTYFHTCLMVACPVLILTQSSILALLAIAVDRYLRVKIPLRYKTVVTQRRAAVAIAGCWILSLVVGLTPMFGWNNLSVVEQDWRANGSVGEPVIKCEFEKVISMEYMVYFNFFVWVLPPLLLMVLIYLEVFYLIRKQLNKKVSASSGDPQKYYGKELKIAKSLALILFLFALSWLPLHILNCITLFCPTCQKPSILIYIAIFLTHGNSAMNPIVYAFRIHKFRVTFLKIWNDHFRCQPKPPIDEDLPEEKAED
The series can be described thus: Displacement of [3H]CHA from adenosine A1 receptor in rat brain cortical membrane at 100 uM. It is filed as cell membranes.

The nature of series [5]: as §1. It is filed as cell membranes.
Series [6] addresses Adenosine receptor A2a (Rattus norvegicus) (UniProt P30543). The series can be described thus: Displacement of [3H]CGS21680 from adenosine A2A receptor in rat brain striatal membrane at 25 uM. It is filed as cell membranes.
For series [7], the target named is T1, Adenosine receptor A1 (Rattus norvegicus). Put plainly: Displacement of [3H]CHA from adenosine A1 receptor in rat brain cortical membrane at 25 uM. It is filed as cell membranes.
The nature of series [8]: Toxicity against Artemia salina after 24 hrs. In kind it is organism-based. Particulars: in vivo.
Another series has as its target Adenosine receptor A2a (Rattus norvegicus, UniProt P30543). Put plainly: Displacement of [3H]CGS21680 from adenosine A2A receptor in rat brain striatal membrane. In kind it is cell membranes.
A further series deals with T2, Adenosine receptor A1 (Rattus norvegicus, UniProt P25099).
T2 sequence (P25099 whole entry): T1 sequence (whole entry)
Put plainly: Displacement of [3H]CHA from adenosine A1 receptor in rat brain cortical membrane. In kind it is cell membranes.

Structures are written as SMILES. ≈ marks a conversion by molar mass, not a printed value. Calls of active or inactive are those of the source. No cut-off for these calls is given here.

Sequence of Adenosine receptor A2a (Rattus norvegicus) (P30543 whole entry, the tested form may be a part): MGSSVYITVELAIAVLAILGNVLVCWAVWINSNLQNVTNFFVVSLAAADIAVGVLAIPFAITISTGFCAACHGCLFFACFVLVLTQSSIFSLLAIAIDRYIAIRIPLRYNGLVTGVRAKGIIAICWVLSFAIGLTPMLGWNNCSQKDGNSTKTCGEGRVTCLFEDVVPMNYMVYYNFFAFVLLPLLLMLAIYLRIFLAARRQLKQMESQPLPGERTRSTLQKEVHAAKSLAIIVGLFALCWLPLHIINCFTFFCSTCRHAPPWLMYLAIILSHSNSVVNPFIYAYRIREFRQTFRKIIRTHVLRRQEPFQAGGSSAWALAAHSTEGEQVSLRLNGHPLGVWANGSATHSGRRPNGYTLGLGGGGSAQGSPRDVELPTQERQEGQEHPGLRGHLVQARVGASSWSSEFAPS
Sequence of Adenosine receptor A2a (P30543 whole entry): as the sequence (P30543 whole entry, the tested form may be a part) above

As usually defined, the IC50 is the point on the concentration scale where inhibition reaches its midpoint. In the case of `NCCc1c2c3c(ccnc3c3ncsc13)-c1ccccc1N2`, the IC50 with HeLa was determined as 1.2 µg/mL (≈ 3.77 µM); with MONO-MAC-6, 2 µg/mL (≈ 6.28 µM). Moreover, the Activity in the series listed under Rattus norvegicus [1] is 30%; in the series with Artemia salina, “Non-toxic”; in series [2], 46%; in [4] it was 36%. In addition, the outcome in the series with Cladosporium cucumerinum, with Bacillus subtilis and in the series on Escherichia coli was inactive. In the series with Spodoptera littoralis (read-out: ED50 (the source's name)), the EC50 was 141 µg/mL (≈ 443 µM). In the series listed under Rattus norvegicus [3], the result was Active.
In general, Ki refers to the dissociation constant of the complex between target and ligand, obtained from inhibition or displacement. The low end stands for tighter binding, the high end for weaker binding. In the case of `Cn1c(=O)c2c(ncn2C)n(C)c1=O` [CAFFEINE], the Ki in series [5] stood at 376 µM.
The LC50 is the concentration lethal to half of the exposed cells or organisms. Regarding `CCC(=O)NCCc1c2c3c(ccnc3c3ncsc13)-c1ccccc1N2` [KUANONIAMINE C], the Activity in [6] was 43%; in [7], 34%; in the series filed under Rattus norvegicus [1] it was 39%. The IC50 in the series with HeLa was determined as 5.1 µg/mL (≈ 13.6 µM); in the series with MONO-MAC-6 it was 1.2 µg/mL (≈ 3.2 µM). Moreover, the outcome in the series with Cladosporium cucumerinum, in the series with Bacillus subtilis and in the series on Escherichia coli was inactive. Moreover, in the series with Spodoptera littoralis, the LC50 amounted to 156 µg/mL (≈ 417 µM). In addition, the result in the series filed under Rattus norvegicus [3] was Active. In series [8], this compound had an LC50 at 24 h of 37 µg/mL (≈ 98.8 µM).
`CC(=O)NCCc1c2c3c(ccnc3c3ncsc13)-c1ccccc1N2` [KUANONIAMINE D]: the Activity turned out to be 56% in series [6], 68% in [7] and 32% in the series filed under Rattus norvegicus [1]. Besides, the IC50 in the series with HeLa worked out at 1.4 µg/mL (≈ 3.88 µM); in the series with MONO-MAC-6, 0.8 µg/mL (≈ 2.22 µM). Besides, the result in the series with Cladosporium cucumerinum, with Bacillus subtilis and with Escherichia coli was inactive. The compound further displayed an LC50 in the series with Spodoptera littoralis of 59 µg/mL (≈ 164 µM). For the same compound, the outcome in the series filed under Rattus norvegicus [3] was Active. The Ki on Adenosine receptor A2a was found to be 13.7 µM; on Adenosine receptor A1, 2.94 µM. This compound also yielded an LC50 at 24 h in [8] of 19 µg/mL (≈ 52.7 µM).
